Key:
[1] = system: panel of human tumor cells; assay: In vitro cytotoxicity, SRB assay, mean over tumor lines; type: cell-based; details: arithmetic mean of the TGI values for tumor lines
Experimental: (§1) The in vitro cytotoxicity of essential oils (present invention) were evaluated against two normal cell lines (VERO—African green monkey kidney epithelial cells and HaCat—immortal human keratinocytes) and against a panel of human tumor cells.
(§2) Based on the results, growth rate graphics from the sample concentration for each of the tested strain were generated.
The test results obtained are shown in FIG. 1 (present invention) and table 2. In this model, one way to infer the growth rate is by spectrophotometric reading of the absorbance of cellular proteins stained with sulforhodamine B (SRB), an anionic dye staining bright pink. This dye can bind to protein terminations of basic amino acids in living cells fixed with Trichloroacetic acid (TCA), thus being an independent assay of cell metabolism and allowing a sensitive measurement of protein linearly with the number of cells in culture. […]
Chemotherapy doxorubicin was used as positive control. […] This is because with successive passages necessary for the maintenance of cell culture, there is the possibility of changing the lineage in culture, and this mutation could be detected by the change in response against doxorubicin. […]

[2] = system: NCI-H460 (lung, non-small cells); assay: In vitro cytotoxicity, SRB assay; type: cell-based, human
Experimental: as §1, §2
(§3) The test results obtained are shown in FIG. 1 (present invention) and table 2. In this model, one way to infer the growth rate is by spectrophotometric reading of the absorbance of cellular proteins stained with sulforhodamine B (SRB), an anionic dye staining bright pink. This dye can bind to protein terminations of basic amino acids in living cells fixed with Trichloroacetic acid (TCA), thus being an independent assay of cell metabolism and allowing a sensitive measurement of protein linearly with the number of cells in culture.
(§4) This test allows us to evaluate the antitumor activity through exposure of human tumor cells in exponential growth phase at different concentrations of the sample and whether that exposure led to an interruption in the growth rate without cell death ([…]) or caused the death cell (cytocidal activity). To measure the activity, an effective concentration called TGI (total growth inhibition, concentration required for 0% cell growth occurs) (Shoemaker, 2006) was calculated.
(§5) Chemotherapy doxorubicin was used as positive control. In addition to a standard of comparison, the main purpose of using this control was to verify that all employed cell lines kept the profile of response to chemotherapy. This is because with successive passages necessary for the maintenance of cell culture, there is the possibility of changing the lineage in culture, and this mutation could be detected by the change in response against doxorubicin. Furthermore, in order to minimize the occurrence of mutations, the cell lines are perpetuated only by up to 20 passages, after which they are replaced by new cells of the same strain that were maintained frozen.

786-0 (kidney) = assay: In vitro cytotoxicity, SRB assay; type: cell-based, human
Experimental: as §1, §2, §3, §4, §5

[3] = system: HaCat (keratinocyte, immortalized normal cell); assay: In vitro cytotoxicity, SRB assay; type: cell-based, human; details: normal cell line
Experimental: as §1, §2, §3, §4, §5

[4] = system: NCI-ADR/RES (ovary, with multidrug resistant phenotype); assay: In vitro cytotoxicity, SRB assay; type: cell-based, human
Experimental: as §1, §2, §3, §4, §5

MCF-7 (breast) = assay: In vitro cytotoxicity, SRB assay; type: cell-based, human
Experimental: as §1, §2, §3, §4, §5

U251 (glioma, CNS) = assay: In vitro cytotoxicity, SRB assay; type: cell-based, human
Description: Based on the results, growth rate graphics from the sample concentration for each of the tested strain were generated. Three effective concentrations called GI50 (growth inhibition, the concentration required to disrupt 50% cell growth), TGI (total growth inhibition, the concentration required for 0% of cell growth) and LC50 (lethal concentration, concentration required for 50% cell death) could be calculated by nonlinear regression, sigmoidal, using 8.0 Origin software.

COc1cccc2c1C(=O)c1c(O)c3c(c(O)c1C2=O)C[C@@](O)(C(=O)CO)C[C@@H]3O[C@H]1C[C@H](N)[C@H](O)[C@H](C)O1 [Doxorubicin]
>25 µg/mL: TGI Average [1] | TGI (Total Growth Inhibition) [2] | TGI (Total Growth Inhibition) (786-0 (kidney)) | TGI (Total Growth Inhibition) [3] | TGI (Total Growth Inhibition) [4] | TGI (Total Growth Inhibition) (MCF-7 (breast))
1.24 µg/mL: TGI (Total Growth Inhibition) (U251 (glioma, CNS))

From patent publication US9333178B2, “Essential oil microparticles and uses thereof for preventing enteric diseases” (Universidade Estadual de Campinas—UNICAMP, priority 2012, dated 2016)
